Data reported in PubChem BioAssay (NCI).
“And” between values parts separate entries of the source, which are not always exact repeats. Equal entries are not always repeated.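 These data come from cells grown in 96-well plates and exposed to compound for 48 hours at five concentrations. Here, GI50 denotes the concentration required for 50% inhibition of growth. TGI denotes the concentration required for complete inhibition of growth.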

Experiments:
Assay in all cases: inhibition of tumour cell growth, NCI panel, 48 h
DU-145 prostate = tested on: DU-145 prostate
EKVX NSCLC = tested on: EKVX NSCLC
HOP-92 NSCLC = tested on: HOP-92 NSCLC
NCI-H23 lung = tested on: NCI-H23 lung
OVCAR-5 ovarian = tested on: OVCAR-5 ovarian
SF-268 CNS = tested on: SF-268 CNS
SF-539 CNS = tested on: SF-539 CNS
SN12C renal = tested on: SN12C renal
TK-10 renal = tested on: TK-10 renal
M14 melanoma = tested on: M14 melanoma

| Structure (SMILES) | GI50 (DU-145 prostate) [µM] | TGI (DU-145 prostate) [µM] | GI50 (EKVX NSCLC) [µM] | TGI (EKVX NSCLC) | GI50 (HOP-92 NSCLC) [µM] | TGI (HOP-92 NSCLC) | GI50 (NCI-H23 lung) | TGI (NCI-H23 lung) | GI50 (OVCAR-5 ovarian) | TGI (OVCAR-5 ovarian) | GI50 (SF-268 CNS) | TGI (SF-268 CNS) | GI50 (SF-539 CNS) [µM] | TGI (SF-539 CNS) | GI50 (SN12C renal) | TGI (SN12C renal) | GI50 (TK-10 renal) [µM] | TGI (TK-10 renal) | GI50 (M14 melanoma) | TGI (M14 melanoma) |
| --- | --- | --- | --- | --- | --- | --- | --- | --- | --- | --- | --- | --- | --- | --- | --- | --- | --- | --- | --- | --- |
| O=C(/C=C/c1cccc([N+](=O)[O-])c1)c1ccc(O)c(CN2CCN(c3cc4c(cc3F)c(=O)c(C(=O)O)cn4C3CC3)CC2)c1 | 1.41 | 2.74 | 1.71 | 3.32 µM | 2.17 | 9.97 µM | 1.81 µM | 3.83 µM | 1.75 µM | 3.35 µM | 2.15 µM | 5.58 µM | 1.19 | 2.47 µM | 1.75 µM | 3.45 µM | 2.1 | 5.59 µM |  |  |
| CCOC(=O)NC1=C(N2CC2)C(=O)C(NC(=O)OCC)=C(N2CC2)C1=O |  | 25 | 24.2 | 25 µM and 16.1 µM | 6.18 | 16.1 µM and 11.2 µM and 10.1 µM | 2.87 µM and 1.61 µM | 15.6 µM and 14.1 µM and 7.55 µM | 19.9 µM and 7.01 µM | 25 µM and 32.6 µM and 35.9 µM | 5.55 µM and 4.88 µM | 25 µM and 20.7 µM and 26.9 µM | 1.57 | 9.51 µM and 9.15 µM and 27.5 µM | 3.3 µM and 3.06 µM | 25 µM and 14.2 µM and 7.15 µM | > 25 | > 25 µM and 65.1 µM | 4.91 µM and 4.5 µM | 25 µM and 23.7 µM and 31.7 µM |
| COc1ccc(SC2c3ccc(C)cc3Oc3nc(N)c(C#N)c(N)c32)cc1 (configuration not stated) | 1.82 | 3.21 | 1.73 | 3.2 µM | 1.84 | 3.55 µM | 1.67 µM | 3.31 µM | 1.74 µM | 3.35 µM | 1.62 µM | 3.04 µM | 1.64 | 3 µM |  |  | 1.74 | 3.12 µM | 1.76 µM | 3.41 µM |
| COc1ccc(-c2nn(-c3cccc(Cl)c3)cc2-c2c(C#N)c(=O)n3[nH]c(-c4ccc(C)cc4)nc3c2C#N)cc1 | 2.74 | 21.9 | 1.62 | 9.2 µM | 0.723 | 4.88 µM | 3.18 µM | 10.6 µM | 4.5 µM | 11.8 µM | 1.62 µM | 7.76 µM | 1.28 | 3.61 µM | 4.52 µM | 11.5 µM | 2.01 | 7.35 µM | 1.66 µM | 6.67 µM |
| O=c1oc(-c2ccccc2)cc2cccc(O)c12 | > 48.7 | > 100 | 4.22 | > 40.6 µM | 16.8 | 61.6 µM | 19.6 µM | 61.5 µM | 55.3 µM | > 100 µM | 30.1 µM | > 89.9 µM | 0.927 | 5.21 µM | 19.4 µM | 51.2 µM | 9.45 | 39.8 µM | > 80.9 µM | > 100 µM |
| CCn1c2ccc(C(=O)CCCN(C)C)cc2c2cc(C(=O)CCCN(C)C)ccc21 |  | 8.34 |  | 6.79 µM |  | 9.24 µM |  | 4.29 µM |  | 9.34 µM |  | 6.62 µM |  | 2.79 µM |  | 5.87 µM |  | 13.2 µM |  | 5.1 µM |
| O=C1NC(=O)C(c2ccc(Cl)cc2)=C1Nc1ccc(Cl)c(C(=O)O)c1 | > 25 | > 25 | > 25 | > 25 µM | > 25 | > 25 µM | > 25 µM | > 25 µM | > 25 µM | > 25 µM | > 25 µM | > 25 µM | > 25 | > 25 µM | > 25 µM | > 25 µM | > 25 | > 25 µM | > 25 µM | > 25 µM |
| COc1ccc2nc(NCN3C(=O)c4ccccc4C3=O)sc2c1 |  | > 100 |  | > 100 µM |  | > 100 µM |  | > 100 µM |  | > 100 µM |  | > 100 µM |  | > 100 µM |  | > 100 µM |  | > 100 µM |  | > 100 µM |
| O=C1c2cc(-c3ccccc3)ccc2-c2c1c1ccc([N+](=O)[O-])cc1c(=O)n2CCCBr | > 50 | > 50 | > 50 | > 50 µM | 17.8 | > 50 µM | > 50 µM | > 50 µM | > 50 µM | > 50 µM | > 35.4 µM | > 50 µM | > 28.7 | > 50 µM | > 50 µM | > 50 µM | 17.5 | > 50 µM | > 50 µM | > 50 µM |
| COc1ccc2nc3cc([N+](=O)[O-])ccc3c(NCCCN(CCO)CCO)c2c1 | 12.6 | 43.4 | 7.48 | 18.4 µM | 4.31 | 11.2 µM | 6.43 µM | 14.2 µM | 12.5 µM | 25.2 µM | 4.09 µM | 10.8 µM | 7.63 | 20.3 µM | 3.92 µM | 14.7 µM | 5.95 | 22 µM | 2.36 µM | 5.18 µM |
| CN1CCN(C(=O)c2c(NC(=O)NS(=O)(=O)c3ccccc3)sc3c2CCCCC3)CC1 | 41 | > 100 | 33.7 | 98.7 µM | 27.1 | > 100 µM | 24.3 µM | 52.1 µM | 76.3 µM | > 100 µM | 41.2 µM | > 100 µM | 29.7 | 69.9 µM | 25 µM | 63.8 µM |  |  | 21.6 µM | 49.8 µM |
| CC1(C)N=C(N)N=C(N)N1c1ccc(CCc2ccc(Cl)cc2S(=O)(=O)F)c(Cl)c1 | 5.91 | > 100 | 11.3 | > 100 µM | 16.6 | 58.3 µM | 6.51 µM | > 100 µM | 4.76 µM | > 100 µM | 4.21 µM | 53.5 µM | 5.54 | 26.1 µM | 7.98 µM | > 100 µM |  |  | 6.2 µM | > 100 µM |
| CN[C@@H]1C[C@H]2O[C@@](C)([C@@H]1OC)n1c3ccccc3c3c4c(c5c6ccccc6n2c5c31)C(=O)N[C@H]4O | 0.0448 | > 5.9 | 0.059 | > 10 µM | 0.00753 | 0.0613 µM | 0.0285 µM | 0.847 µM |  |  | 0.024 µM | 2.31 µM | 0.0266 | 0.115 µM |  | 1.7 µM | 0.0096 | 0.0541 µM |  | > 3.69 µM |
